# Tested on: ulcerative colitis model (dextran sodium sulphate)
# Assay: Effect Example 1: therapeutic effect on ulcerative colitis, dextran sodium sulphate model, injected treatment, 14 days
# Type: in vivo, C57 mice
# Method: Thirty 10-week-old male C57 mice, SPF class animal house, temperature 20-26° C., humidity 40%-70%, alternating light-dark periods (12 h/12 h).
# Quarantine-qualified animals with similar weights were selected for the experiment.
# Mice in the blank control group were given normal drinking water throughout the experiment. The other 5 groups of mice were given drinking water containing 2% dextran sodium sulphate (DSS) from day 1 to day 5, normal drinking water from day 6 to day 7, drinking water containing 2% dextran sodium sulphate from day 8 to day 12, and normal drinking water from day 13 to day 14. The experiment ended on day 14.
# Animals in the blank control group and ulcerative colitis model group were given sterile water intraperitoneally from day 1, once a day; the other 4 groups were administered according to table 1, once a day, until the end of the experiment on day 14. Two hours after the first day of administration, the mice were started to drink water containing dextran sodium sulphate.
# (1) The mice were weighed daily.
# (2) Blood samples were collected from the orbital vein on day 14 and stored at −80° C.
# (3) On day 14, the mice were sacrificed by cervical vertebra dislocation, the colon was removed and a small amount of fecal was taken from the colon and left as a sample. The colon length and colon weight were measured. A portion of the colon and the fecal sample was stored at −80° C.
# [1] = Day 1, high-dose treatment group 40 mg/kg intraperitoneal injection
# [2] = Day 1, low-dose treatment group 10 mg/kg intraperitoneal injection
# [3] = Day 1, middle-dose treatment group 20 mg/kg intraperitoneal injection
# [4] = Day 2, high-dose treatment group 40 mg/kg intraperitoneal injection
# [5] = Day 2, low-dose treatment group 10 mg/kg intraperitoneal injection
# [6] = Day 2, middle-dose treatment group 20 mg/kg intraperitoneal injection
# [7] = Day 3, high-dose treatment group 40 mg/kg intraperitoneal injection
# [8] = Day 3, low-dose treatment group 10 mg/kg intraperitoneal injection
# [9] = Day 3, middle-dose treatment group 20 mg/kg intraperitoneal injection
# [10] = Day 4, high-dose treatment group 40 mg/kg intraperitoneal injection
# [11] = Day 4, low-dose treatment group 10 mg/kg intraperitoneal injection
# [12] = Day 4, middle-dose treatment group 20 mg/kg intraperitoneal injection
# [13] = Day 5, high-dose treatment group 40 mg/kg intraperitoneal injection
# [14] = Day 5, low-dose treatment group 10 mg/kg intraperitoneal injection
# [15] = Day 5, middle-dose treatment group 20 mg/kg intraperitoneal injection
# [16] = Day 6, high-dose treatment group 40 mg/kg intraperitoneal injection
# [17] = Day 6, low-dose treatment group 10 mg/kg intraperitoneal injection
# [18] = Day 6, middle-dose treatment group 20 mg/kg intraperitoneal injection
# [19] = Day 7, high-dose treatment group 40 mg/kg intraperitoneal injection
# [20] = Day 7, low-dose treatment group 10 mg/kg intraperitoneal injection
# [21] = Day 7, middle-dose treatment group 20 mg/kg intraperitoneal injection
# [22] = Day 8, high-dose treatment group 40 mg/kg intraperitoneal injection
# [23] = Day 8, low-dose treatment group 10 mg/kg intraperitoneal injection
# [24] = Day 8, middle-dose treatment group 20 mg/kg intraperitoneal injection
# [25] = Day 9, high-dose treatment group 40 mg/kg intraperitoneal injection
# [26] = Day 9, low-dose treatment group 10 mg/kg intraperitoneal injection
smiles,measurement,setting,value
"CC(C)=C1OC(C)=C(O[C@@H]2O[C@H](CO)[C@@H](O)[C@H](O)[C@H]2O)C1=O [Compound I-1, 4-O-β-D-glucosyl-5-methyl-2-(1-methylethylidene)-3(2H)-furanone]",Average weight of mice,[1],27.6 g
same,Rate of change in weight of mice,[1],100.0%
same,Average weight of mice,[2],27.9 g
same,Rate of change in weight of mice,[2],100.0%
same,Average weight of mice,[3],27.8 g
same,Rate of change in weight of mice,[3],100.0%
same,Average weight of mice,[4],27.6 g
same,Rate of change in weight of mice,[4],99.9%
same,Average weight of mice,[5],28.1 g
same,Rate of change in weight of mice,[5],100.6%
same,Average weight of mice,[6],27.8 g
same,Rate of change in weight of mice,[6],100.1%
same,Average weight of mice,[7],27.6 g
same,Rate of change in weight of mice,[7],100.0%
same,Average weight of mice,[8],28.0 g
same,Rate of change in weight of mice,[8],100.5%
same,Average weight of mice,[9],27.9 g
same,Rate of change in weight of mice,[9],100.3%
same,Average weight of mice,[10],27.6 g
same,Rate of change in weight of mice,[10],100.0%
same,Average weight of mice,[11],28.0 g
same,Rate of change in weight of mice,[11],100.3%
same,Average weight of mice,[12],27.9 g
same,Rate of change in weight of mice,[12],100.3%
same,Average weight of mice,[13],27.3 g
same,Rate of change in weight of mice,[13],99.1%
same,Average weight of mice,[14],27.2 g
same,Rate of change in weight of mice,[14],97.6%
same,Average weight of mice,[15],27.5 g
same,Rate of change in weight of mice,[15],99.1%
same,Average weight of mice,[16],27.2 g
same,Rate of change in weight of mice,[16],98.7%
same,Average weight of mice,[17],26.3 g
same,Rate of change in weight of mice,[17],94.3%
same,Average weight of mice,[18],27.2 g
same,Rate of change in weight of mice,[18],97.8%
same,Average weight of mice,[19],26.8 g
same,Rate of change in weight of mice,[19],97.0%
same,Average weight of mice,[20],25.9 g
same,Rate of change in weight of mice,[20],93.0%
same,Average weight of mice,[21],26.7 g
same,Rate of change in weight of mice,[21],96.0%
same,Average weight of mice,[22],26.3 g
same,Rate of change in weight of mice,[22],95.3%
same,Average weight of mice,[23],25.6 g
same,Rate of change in weight of mice,[23],91.6%
same,Average weight of mice,[24],26.2 g
same,Rate of change in weight of mice,[24],94.3%
same,Average weight of mice,[25],25.8 g
same,Rate of change in weight of mice,[25],93.5%
same,Average weight of mice,[26],25.3 g
same,Rate of change in weight of mice,[26],90.8%
same,Average weight of mice,"Day 9, middle-dose treatment group 20 mg/kg intraperitoneal injection",25.9 g

# From patent US20230092001A1, “FURANEOL GLYCOSIDE COMPOUND, PHARMACEUTICAL COMPOSITION THEREOF, PREPARATION METHOD THEREFOR, AND APPLICATION THEREOF” (priority 2019, published 2023)
